As usually defined, the EC50 is the concentration needed to bring the measured effect to its halfway point.

The values that follow come from patent US20050070532A1, “Aryl compounds as modulators of PPARS and methods of treating metabolic disorders” (priority 2003, published 2005).

In one experiment the target is T1, hPPARδ (Homo sapiens, UniProt Q03181).
T1 construct: expressed in transfected cells; host or cells: CV-1 cells
T1 sequence (Q03181 211-439 limits assumed): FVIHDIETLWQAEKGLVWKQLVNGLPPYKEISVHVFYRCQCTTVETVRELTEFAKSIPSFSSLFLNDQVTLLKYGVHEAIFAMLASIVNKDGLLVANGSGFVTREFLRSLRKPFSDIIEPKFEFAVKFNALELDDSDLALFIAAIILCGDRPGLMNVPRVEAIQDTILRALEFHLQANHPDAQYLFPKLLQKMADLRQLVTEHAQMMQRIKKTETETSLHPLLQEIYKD
As to the kind of experiment: cell-based human PPAR-GAL4 chimera luciferase reporter assay in CV-1 cells (PPARδ). The conditions noted are these: CV-1 cells transiently transfected with PPAR LBD-GAL4 chimera and luciferase reporter, 24 hours treatment. As to the method: (§1) The compounds were evaluated in a cell-based assay to determine their human PPAR activity. The plasmids for human PPAR-GAL4 chimeras were prepared by fusing amplified cDNAs encoding the LBDs of PPARs to the C-terminal end of the yeast GAL4 DNA binding domain. CV-1 cells were grown and transiently tranfected with PerFectin (GTS, San Diego, Calif.) according to the manufacturer's protocol along with a luciferase reporter. Eight hours after transfection, 50 μL of cells were replated into 384 well plates (1×10^5 cells/well). Sixteen hours after replating, cells were treated with either compounds or 1% DMSO for 24 hours. Luciferase activity was then assayed with Britelite (Perkin Elmer) following the manufacturer's protocol and measured with either the Perkin Elmer Viewlux or Molecular Devices Acquest.
A general note: Reporter assays use an easily measured gene product as a stand-in for the process of interest.

The target of a further experiment is T2, hPPARγ (Homo sapiens, UniProt P37231).
T2 construct: expressed in transfected cells; host or cells: CV-1 cells
T2 sequence (P37231 238-503 limits assumed): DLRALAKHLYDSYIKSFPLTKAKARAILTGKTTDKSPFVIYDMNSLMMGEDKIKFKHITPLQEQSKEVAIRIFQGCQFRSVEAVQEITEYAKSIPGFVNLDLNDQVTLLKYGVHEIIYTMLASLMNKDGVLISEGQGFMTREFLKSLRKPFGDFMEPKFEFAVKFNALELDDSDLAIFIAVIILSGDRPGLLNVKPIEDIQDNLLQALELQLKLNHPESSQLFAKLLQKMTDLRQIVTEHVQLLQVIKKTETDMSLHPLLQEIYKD
As to the kind of experiment: cell-based human PPAR-GAL4 chimera luciferase reporter assay in CV-1 cells (PPARγ). To be noted: CV-1 cells transiently transfected with PPAR LBD-GAL4 chimera and luciferase reporter, 24 hours treatment. As to the method:
as §1

In the next experiment the target is T3, hPPARα (Homo sapiens, UniProt Q07869).
T3 construct: expressed in transfected cells; host or cells: CV-1 cells
T3 sequence (Q07869 239-466 limits assumed): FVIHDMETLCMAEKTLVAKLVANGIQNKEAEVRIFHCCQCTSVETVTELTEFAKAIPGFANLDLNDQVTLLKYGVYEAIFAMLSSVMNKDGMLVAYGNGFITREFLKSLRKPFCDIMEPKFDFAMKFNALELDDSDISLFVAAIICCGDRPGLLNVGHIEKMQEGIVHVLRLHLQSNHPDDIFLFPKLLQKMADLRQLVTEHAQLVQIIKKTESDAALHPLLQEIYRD
Kind of experiment: cell-based human PPAR-GAL4 chimera luciferase reporter assay in CV-1 cells (PPARα). The conditions noted are these: CV-1 cells transiently transfected with PPAR LBD-GAL4 chimera and luciferase reporter, 24 hours treatment; read-out: hPPAPα (EC50). As to the method:
as §1

With `CCc1cnc(N(CCCOc2cccc(CC(=O)O)c2)Cc2ccc(C(F)(F)F)cc2C(F)(F)F)nc1`, the EC50 on hPPARδ, at hPPARγ and at hPPARα was below 1 µM each time.
Take `CCCCN(CCCOc1cccc(CC(=O)O)c1)c1ncc(CC)cn1`: the EC50 at hPPARδ was 1 to 100 µM; at hPPARγ, below 1 µM; at hPPARα it was above 100 µM.
For `CCCCN(CCCOc1cccc(CC(=O)O)c1)c1ccccn1`, the EC50 on hPPARδ was 1 to 100 µM; at hPPARγ, below 1 µM; on hPPARα, above 100 µM.
For `CCCCN(CCCOc1cccc(CC(=O)O)c1)c1nc2ccccc2s1`, the EC50 at hPPARδ was 1 to 100 µM; on hPPARγ, above 100 µM; on hPPARα, 1 to 100 µM.
As to `CCCCN(CCCOc1cccc(CC(=O)O)c1)c1nc2ccccc2o1`, the concentration giving a half-maximal response (EC50) on hPPARδ was 1 to 100 µM; on hPPARγ it was above 100 µM; at hPPARα, 1 to 100 µM.
As to `O=C(O)Cc1cccc(OCCCN(Cc2ccc(C(F)(F)F)cc2)c2nc3ccccc3s2)c1`, the EC50 on hPPARδ, on hPPARγ and on hPPARα was below 1 µM in each case.
As to `O=C(O)Cc1cccc(OCCCN(Cc2ccc(C(F)(F)F)cc2C(F)(F)F)c2nc3ccccc3s2)c1`, the EC50 is 1 to 100 µM on hPPARδ, below 1 µM on hPPARγ and above 100 µM on hPPARα.
For the compound `O=C(O)Cc1cccc(OCCCN(Cc2ccc(C(F)(F)F)cc2C(F)(F)F)c2nc3ccccc3o2)c1`, the EC50 is 1 to 100 µM on hPPARδ, below 1 µM at hPPARγ and above 100 µM at hPPARα.
In the case of `O=C(O)Cc1cccc(OCCCN(Cc2ccc(C(F)(F)F)cc2C(F)(F)F)c2ccccn2)c1`, the values for the EC50 at hPPARδ, at hPPARγ and at hPPARα were below 1 µM, below 1 µM and above 100 µM, respectively.
Turning to `CCc1cnc(N(CCCOc2c(C(=O)O)ccc3ccccc23)Cc2ccc(C(F)(F)F)cc2C(F)(F)F)nc1`, the EC50 was above 100 µM on hPPARδ, below 1 µM at hPPARγ and 1 to 100 µM at hPPARα.
The corresponding values for `CCc1cnc(N(CCCOc2ccc3cc(C(=O)O)ccc3c2)Cc2ccc(C(F)(F)F)cc2C(F)(F)F)nc1` are above 100 µM, above 100 µM and above 100 µM.
The corresponding values for `CCc1cnc(N(CCCOc2cc3ccccc3cc2C(=O)O)Cc2ccc(C(F)(F)F)cc2C(F)(F)F)nc1` are above 100 µM, below 1 µM and 1 to 100 µM.
On to `CCCCN(CCCOc1c(C(=O)O)ccc2ccccc12)c1ncc(CC)cn1`, for which the EC50 was above 100 µM at hPPARδ, below 1 µM on hPPARγ and above 100 µM at hPPARα.
Take `CCCCN(CCCOc1c(C(=O)O)ccc2ccccc12)c1ccccn1`: the EC50 at hPPARδ was above 100 µM; on hPPARγ it was below 1 µM; on hPPARα, above 100 µM.
On to `CCCCN(CCCOc1c(C(=O)O)ccc2ccccc12)c1nc2ccccc2s1`, for which the EC50 on hPPARδ is 1 to 100 µM; at hPPARγ, 1 to 100 µM; on hPPARα, above 100 µM.
Turning to `O=C(O)c1ccc2ccccc2c1OCCCN(Cc1ccc(C(F)(F)F)cc1)c1nc2ccccc2s1`, the half-maximal effective concentration (EC50) at hPPARδ is above 100 µM; at hPPARγ it was below 1 µM; on hPPARα, above 100 µM.
With `CCCCN(CCCOc1c(C(=O)O)ccc2ccccc12)c1nc2ccccc2o1`, the EC50 at hPPARδ was above 100 µM; on hPPARγ, 1 to 100 µM; at hPPARα it was above 100 µM.
For the compound `O=C(O)c1ccc2ccccc2c1OCCCN(Cc1ccc(C(F)(F)F)cc1C(F)(F)F)c1nc2ccccc2o1`, the EC50 on hPPARδ was above 100 µM; at hPPARγ it was below 1 µM; at hPPARα, above 100 µM.
